We go through six compounds from US10392363B2, “Methods for treating protozoan infections” (Neoculi Pty Ltd., priority 2014, dated 2019).

Where “and” joins values, the source holds several entries; their conditions need not be identical. Identical values can stand only once.

Series [1] has as its system Trypanosoma cruzi (Tulahuen trypomastigotes expressing β-galactosidase, in L6 cells). Briefly: In vitro T. cruzi assay for determination of IC50. The series is classed as cell-based. To be noted: Trypanosoma cruzi, TULAHUEN, L6; 96 h incubation. The procedure:
The T. cruzi assay uses Tulahuen trypomastigotes expressing the β-galactosidase gene. The parasites were maintained in vitro by serial passage in L6 cells. […] Extracellular trypomastigotes were then removed and NCL compounds were added in seven-point serial dilutions performed in triplicate. Benznidazole (Epichem Pty Ltd.) was included as a control. […] After 4-6 h, a colour change following catabolisation of the reagent by viable T. cruzi was observed and absorbance was read at 530 nm using a Dynex microplate reader. […] For each compound, % inhibition values were used to generate a standard curve from which the IC50 was calculated. Each assay was performed at least twice, and the average was used.

For series [2], the system named is Leishmania donovani promastigotes. Briefly: L. donovani screening (Alamarblue). The series is classed as cell-based. The note with it: for L. donovani SI: GI50 of macrophages divided by IC50 of parasites; for inhibition at 10 µM: 96 hrs, read-out: reduction of metabolic activity / inhibition of L. donovani. The procedure:
L. donovani Screening. Procyclic promastigotes from exponentially growing cultures maintained in DME-L+ Bob additions were used for all assays. Compounds were initially screened for activity at 10 μM. Compounds were diluted in culture media to a […] in 96 well plates. Promastigotes were diluted to a density of ˜8×10^5 cells/ml then added to the assay plate resulting in a final cell density of 4×10^5 cells/ml. in 96 well plates. Cells were incubated for 96 hrs at 27° C. before the addition of Alamarblue (thermofisher). Fluorescence was read at excitation 530 nm and Emission 590 nm. […] Compounds were serially diluted in thirds, in a 96 well plate, in cell growth media so that concentrations ranged from 0.005 to 10 μM and promastigotes added to a final concentration of 1×10^6 cells/ml. Cells were incubated at 27° C. for 72 hours before the addition of alamar blue. Fluorescence was measured as above.

A short description of series [3]: Microsomal stability, human. It is filed as in vitro ADME. The note with it: human liver microsomes. The procedure: (§1) Incubation methods: The metabolic stability assay was performed by incubating each test compound (at 1 μM) with human and mouse liver microsomes (Xenotech, Lot#1210057 and 1310211, respectively) at 37° C. and 0.4 mg/mL protein concentration. The metabolic reaction was initiated by the addition of an NADPH-regenerating system (i.e. NADPH is the cofactor required for CYP450-mediated metabolism) and quenched at various time points over a 60 minute incubation period by the addition of acetonitrile containing diazepam as internal standard. Control samples (containing no NADPH) were included (and quenched at 2, 30 and 60 minutes) to monitor for potential degradation in the absence of cofactor. Analytical conditions: Instrument: Waters Micromass Xevo G2 QTOF coupled to a Waters Acquity UPLC; Detection: Positive electrospray ionisation under MSE mode; Cone Voltage 30 V; Column: Ascentis Express Amide column (50×2.1 mm, 2.7 μm); LC conditions: Gradient cycle time: 4 minutes; Injection volume: 5 μL; Flow rate: 0.4 mL/min; Mobile phase: Acetonitrile-water gradient with 0.05% formic acid Metabolite; Identification: A metabolite screen was not included in this study, however, since data was acquired using MSE mode, which allows for the simultaneous acquisition of low and high collision energy MS spectra, a post-hoc metabolite search may be conducted at a later date if warranted. […]

Series [4] in a line: Cell toxicity assay (WST-1). It is filed as cell-based, mouse. To be noted: mouse, RAW 264.7 macrophages, RAW 264.7, 24 hours, read-out: GI50 macrophage. Here is the method: Cell toxicity assays. Mouse macrophages (RAW 264.7) were grown in RPM11640 media supplemented with L-glutamine and 10% foetal calf serum. Cells were trypsanised when 80% confluent and subcultured every 3-4 days. For cytotoxicity assays cells were diluted to a final cell concentration of 2×10^4 cells/ml and 198 μl added to each well of a 96 well plate. Cells were incubated in a humidified incubator for 2 hours at 37° C. 5% CO2 before the addition of NCL compounds (2 μl/well, previously diluted in DMSO). Campothecin, triton X and DMSO only were used as controls. Cells were exposed to the compounds for 24 hours. The metabolic activity of the cells was determined using the WST-1 assay system (Roche Life Science). The supernatant was removed, 100 μl of PBS with 10% WST-1 was added to each well and incubated for 1 hr before reading absorbance at 450 nm. The selectivity index of the compounds was determined by dividing the IC50 of macrophages by the IC50 against parasites. IC50 was determined via graphpad prism software.
For orientation: Formazan colour is commonly taken as a measure of viable cells.

The nature of series [5]: Microsomal stability, mouse. It is filed as in vitro ADME. The note with it: mouse liver microsomes. Here is the method: as §1
Series [6] can be described thus: Release from Formulation B (Franz diffusion cells). The series is classed as physicochemical. To be noted: absolute ethanol receptor, 32° C., up to 24 hours. Here is the method:
Franz diffusion cells were utilized to quantify the release rate of NCL 812 and NCL099 from its topical formulations. Five milliliters of absolute ethanol, which was chosen as the desired release medium, was loaded into the receptor chamber. Temperature of the receptor fluid was kept constant, at 32±1° C. using a water jacket. Acetyl cellulose membranes, with pore size of 0.45 μm (Pall Corporation) was selected and placed between donor and receptor chamber. Followed by that, a number of test samples (Formulation B) was loaded into the donor chamber. One milliliter of receptor fluid was collected at regular time intervals of 0.25, 0.50, 0.75, 1, 2, 3, 4, 5, 6, 7, 8 and 24 hours through the sampling port. One milliliter of fresh absolute ethanol was immediately returned to the receptor chamber. UV-HPLC was utilized to analyse the content of the receptor fluids attained.

The test system of series [7] is sheep erythrocytes. Briefly: Erythrocyte haemolysis assay. The series is classed as cell-based. The note with it: compared to NCL812 and NCL062. Here is the method: Whole sheep blood was obtained from Thermofisher scientific. The red blood cells were separated from other blood components via centrifugation at 1500 g for 10 minutes and washed with saline 3 times. Erythrocytes were diluted to a concentration of ˜1×10^10 cells/ml in saline. 50 μl of NCL compounds diluted in DMSO (see below) were added to 1.5 ml Eppendorf tubes and 500 μl of diluted red blood cells were added to each tube. Erythrocytes were incubated with compounds for 30 minutes at 37° C. with gentle shaking (75 rpm). After incubation cells were placed on ice for 5 minutes then centrifuged at 1500 rpm for 10 minutes to pellet cells. The supernatant was removed and serially diluted in saline. Absorbance of the supernatant and dilutions were recorded at 550 nm. Sample lysis was compared relative to cells lysed 100% in distilled water and analysed using GraphPad Prism v6 software.

Series [8] relates to Giardia duodenalis (strain WB trophozoites). Briefly: Giardia adherence assay. It is filed as cell-based. To be noted: NCL099 at 11, 38 and 128 μg/ml compared to the control. The procedure:
Giardia strain WB was grown until confluent (grown and maintained in TYI-S-33 medium with 10% foetal bovine serum). For the assay, media of a confluent culture was replaced with fresh TYI-S-33 medium. Cultures were then cold shocked (on ice) for 40 minutes to detach trophozoites. The cell density of the cultures was adjusted to 1×10^6 cells/ml and 1 ml was added to each well of a 24 well plate already containing 1 ml of diluted compounds (see below). […] After incubation the coverslips were removed, air-dried and stained with Diff-Quik (a Romanowski stain variant). Coverslips were mounted onto glass slides using polymount. Images at 10× magnification were taken at 5 random locations per coverslip. […] Stock solutions of compounds were prepared in DMSO at 25.6 mg/ml. Compounds were diluted 1:100 in TYI-S-33 medium. A 1:2 serial dilution was then performed in TYI-S-33 medium in 24 well plates.

The subject of series [9] is Giardia WB (Giardia duodenalis). Briefly: Resazurin Reduction Assay (Example 9). The series is classed as cell-based. Here is the method:
Giardia trophozoites were grown until confluent. The media was replaced with fresh media and cold shocked for 40 minutes. Compounds were prepared in DMSO and serially diluted 2-fold in DMSO starting at with a 1/100 dilution of the stock (e.g. 128 mg/ml stock starting dilution would be […]). 2 μl of dilutions were added to the appropriate wells and 198 ul of TYI-S-33 media added to each well. Cells were diluted to a concentration of ˜500 000 cells/ml and 100 μl were added to each well of the assay plate (except media only control). The assay was incubated in an anaerobic environment (candle jar) for 5 hours at 37° C. The media was removed and replaced with 100 μl of warm PBS then Alamarblue™ added to a concentration of 10%. The samples were incubated in an anaerobic environment until colour development. After incubation, the absorbance of each sample was read at 570 and 630 nm. The percent reduction of resazurin (Alamarblue™) was calculated (using the formula below) and data was analysed with GraphPad Prism v6 software. The formula used to calculate percent reduction of Alamarblue was ((Eoxi630×A570)−(Eoxi570×A630))/((Ered570×C630)−(Ered×C570))×100, Where: Eoxi630=34798, Eoxi570=80586, A570=absorbance at 570 nm, A630=absorbance at 630 nm, Ered570=155677, Ered630=5494, C630=absorbance of negative control well at 630 nm and C570=absorbance of negative control well at 570 nm.

Series [10] has as its system S. aureus ATCC 29213. The series can be described thus: S. aureus MIC. It is filed as cell-based. The note with it: MIC after 24 hours.
The subject of series [11] is T. cruzi infection. The note with it: cited from earlier work.

Turning to `COc1ccccc1/C=N/NC(=N)N/N=C/c1ccccc1OC.Cl` [NCL028], the IC50 in series [1] stood at 13 µM; in series [2] (72 hours), 0.29 ± 0.05 µM; in series [2] (Leishmania donovani, 72 h), 0.37 µM. In addition, the “L. donovani SI” value is reported as “highly selective” in [2] and 27.9 in series [2] (listed as NCL 028). Further, the inhibition at 10 µM in [2] (Leishmania donovani) was determined as 100%. In addition, the rate of degradation result is reported as “low (low (<0.3))” in series [3] and “high (high (0.7-0.95))” in series [5]. For the same compound, the concentration for 50% growth inhibition (GI50) at 24 h in series [4] was found to be 8.1 ± 2.76 µM.

For `CC(C)(C)c1ccc(/C=N/NC(=N)N/N=C/c2ccc(C(C)(C)C)cc2)cc1.Cl` [NCL099], the “release profile from Formulation B” value in series [6] is listed as “acceptable release profile”. In addition, the “selectivity for bacterial and protozoal cells than mammalian cells” value in series [7] is recorded as “greater selectivity”. Also, in series [8], the “number of adherent cells” value is recorded as “significant decrease”. The compound also displayed an IC50 in [2] (Leishmania donovani, 72 h) of 0.37 ± 0.04 µM. Besides, in series [2] (Leishmania donovani), the inhibition at 10 µM was determined as 100%. For the same compound, the GI50 at 24 h in [4] was determined as 7.66 ± 0.56 µM.

`C/C(=N\NC(=N)N/N=C(\C)c1ccc(C(C)(C)C)cc1)c1ccc(C(C)(C)C)cc1.Cl` [NCL219]: the half-inhibitory concentration (IC50) was 1.03 µM and 0.4 µg/mL in [9] (Giardia, 5 h); 0.8 ± 0.1 µM in [2] (Leishmania donovani, 72 h). This compound returned an MIC in series [10] (Staphylococcus aureus, ATCC29213) above 100 µg/mL. Moreover, the “L. donovani SI” value is listed as “highly selective” in series [2] and 24.08 in series [2] (listed as NCL 219). For the same compound, the inhibition at 10 µM in series [2] (Leishmania donovani) worked out at 100%. For the same compound, the GI50 at 24 h in series [4] came to 19.3 ± 3.77 µM.

Regarding `NC(N)=N/N=C(\CC1CCCCC1)c1ccc(Cl)cc1O` [NCL237], the “Giardia WB IC50” value in series [9] (IC50 after 5 hours) was 22.8^ ug/ml. In series [10], the “S. aureus ATCC 29213 MIC” value was 4.8 µg/mL.

Regarding `O=C(Cn1ccnc1[N+](=O)[O-])NCc1ccccc1` [benznidazole], in series [11] (children with chronic T. cruzi infection, negative serology 3 to 4 years after treatment), the cure rate result is recorded as “around 60%”.

As for `CC1CS(=O)(=O)CCN1/N=C/c1ccc([N+](=O)[O-])o1` (centres unmarked) [nifurtimox], the “patients with gastrointestinal side effects” value in series [11] (anorexia, weight loss, nausea, vomiting) is “up to 70%”.

Usually IC50 stands for the concentration that inhibits the measured activity by half. Read a low IC50 as greater potency in that assay. A word on the GI50: it is the concentration at which growth is held to half of that of the control. In general, MIC refers to the lowest concentration that inhibits growth of the organism. The low end stands for inhibition by little substance, the high end for a need for much substance.
